Values after ≈ are worked out from the molar mass of the structure shown.
Tests used:
in vivo [1] = details: female, CD-1, mouse, po, 25 mg/kg
[2] = female, CD-1, mouse, in vivo, po, 25 mg/kg
in vivo [3] = details: female, CD-1, mouse, po, 25 mg/kg; remark: listed apart in the source
[4] = Cytotoxicity against THP1 macrophage cell lines; assay type: cell-based; details: human
[5] = In vivo plasma PK after oral dosing in CM-2 formulation; details: female, CD-1, mouse, plasma, po, 25 mg/kg
[6] = female, CD-1, mouse, in vivo, po, 25 mg/kg; remark: listed apart in the source
[7] = In vivo lung PK after oral dosing; details: female, CD-1, mouse, 25 mg/kg
Mtb H37Rv = test: In vivo mouse efficacy, established murine TB model; set-up: species or system Balb/c mice; details: for Mean log lung CFU reduction ± SEM compared to untreated controls / Mean log lung CFU ± SEM / log reduction at 25 mg/kg / log reduction at 100 mg/kg: 5 animals; for Efficacy compared with PA-824, in words: significance at P<0.05; for Dose dependence of efficacy, in words: 25 versus 100 mg/kg oral daily for 4 weeks; for log reduction at 25 mg/kg / log reduction at 100 mg/kg: Mycobacterium tuberculosis, H37RV, po, 672 h, read-out: Mean log lung CFU reduction ± SEM compared to untreated controls
Method: In vivo mouse efficacy studies were determined after intranasal infection of Balb/c mice with 10^3 cfu Mtb H37Rv. Treatment was initiated 4 weeks after infection. Compounds were orally administered in CM-2 formulation for 4 weeks daily. Bacterial loads were determined at 2 and 4 weeks post treatment. Statistical analysis was done by a one-way analysis of variance, followed by a multiple comparison analysis of variance by a one-way Tukey test (GraphPad Prism, version 5.02, San Diago, California USA, www.graphpad.com). Differences were considered statistically significant at the 95% level of confidence.

in vivo [8] = details: female, CD-1, mouse, iv, 5 mg/kg; for clearance: i.v. CL
in vitro [9] = details: mouse, plasma
[10] = not given; remark: listed apart in the source
[11] = tested on: M. tuberculosis (Mtb) (H37Rv, ATCC 27294); test: microbe, parasite or virus in culture; assay type: cell-based; details: for MIC99: Mycobacterium tuberculosis
[12] = In vivo plasma PK after intravenous dosing; details: mice, i.v. dosing at 5 mg/kg
in vitro [13] = details: human, Caco-2
[14] = 25 mg/kg oral daily for 4 weeks
[15] = 100 mg/kg oral daily for 4 weeks

Row | Compound | Tmax (in vivo [1]) | Kp (in vivo [1]; Lung to Plasma ratio AUC24) | Kp (in vivo [1]; Lung to Plasma ratio Cmax) | Plasma free fCmax [2] | AUC (in vivo [3]) | Cmax (in vivo [3]) | Tmax (in vivo [3]) | bioavailability (in vivo [3]) | CC50 [4] | half-life [5] | Absolute lung concentrations, fold lower than PA-824 [6] | Lung AUC24 [6] | Lung Cmax [6] | half-life [7] | Mean log lung CFU reduction ± SEM compared to untreated controls (Mtb H37Rv; [14]) | Mean log lung CFU ± SEM (Mtb H37Rv; [14]) | Efficacy compared with PA-824, in words (Mtb H37Rv; [14]) | Mean log lung CFU ± SEM (Mtb H37Rv; [15]) | Efficacy compared with PA-824, in words (Mtb H37Rv; [15]) | Dose dependence of efficacy, in words (Mtb H37Rv) | further results
1 | O=[N+]([O-])c1cn2c(n1)OC[C@@H](NCc1ccc(OC(F)(F)F)c(Cl)c1)C2 [NI-135] | 0.5 h | 3.9 | 4.6 | 0.1 µg/mL | 4800 ng·h/mL | 1200 ng/mL | 0.5 h | 51% | > 10 µg/mL | 2.9 h | 2.5-7.5 fold | 18.6 µg·h/g | 5.5 µg/g | 3.3 h | 1.48 ± 0.07 log CFU | 4.76±0.07 log CFU | comparable efficacy to PA-824 | 4.36±0.07 log CFU | comparable efficacy to PA-824 | dose dependent increase in efficacy | log reduction at 25 mg/kg (Mtb H37Rv; [14]): 1.48 ± 0.07; log reduction at 100 mg/kg (Mtb H37Rv; [15]): 1.88 ± 0.07; Vd (in vivo [8]): 4.2 L/kg; clearance (in vivo [8]): 41 mL/min/kg; Solubility pH 6.8: 77.0 µg/mL; fraction unbound (in vitro [9]): 0.085; logP (physchem): 3; PAMPA %FA [10]: 90%; PAMPA Log Pe [10]: –4.5 cm/sec; In vitro potency relative to PA-824 [11]: 10 times; MIC99 [11]: 0.03 µg/mL (≈ 0.0764 µM); half-life ([12]; female, CD-1, mouse, plasma, iv, 5 mg/kg, T1/2 (i.v)): 4 h; Papp A→B (in vitro [13]): 23.4 ×10⁻⁶ cm/s; Papp B→A (in vitro [13]): 15.3 ×10⁻⁶ cm/s; efflux ratio (in vitro [13]): 0.6
2 | O=[N+]([O-])c1cn2c(n1)OC[C@@H](NCc1ccc(OC(F)(F)F)c(F)c1)C2 [NI-136] | 0.5 h | 3.7 | 3.6 | 0.3 µg/mL | 10700 ng·h/mL | 2000 ng/mL | 0.5 h | 64% | > 10 µg/mL | 2 h | 2.5-7.5 fold | 39.8 µg·h/g | 7.2 µg/g | 2.5 h | 1.31 ± 0.06 log CFU | 4.93±0.06 log CFU | comparable efficacy to PA-824 | 4.18±0.17 log CFU | comparable efficacy to PA-824 | dose dependent increase in efficacy | log reduction at 25 mg/kg (Mtb H37Rv; [14]): 1.31 ± 0.06; log reduction at 100 mg/kg (Mtb H37Rv; [15]): 2.06 ± 0.17; Vd (in vivo [8]): 1.8 L/kg; clearance (in vivo [8]): 25.1 mL/min/kg; Solubility pH 6.8: 43.0 µg/mL; fraction unbound (in vitro [9]): 0.173; logP (physchem): 2.6; PAMPA %FA [10]: 83%; PAMPA Log Pe [10]: –4.7 cm/sec; In vitro potency relative to PA-824 [11]: 10 times; MIC99 [11]: 0.03 µg/mL (≈ 0.0797 µM); T1/2 (i.v) [12]: 1.3 h; Papp A→B (in vitro [13]): 15.4 ×10⁻⁶ cm/s; Papp B→A (in vitro [13]): 12.6 ×10⁻⁶ cm/s; efflux ratio (in vitro [13]): 0.8
